What was measured:
[1] = molecular target: T1, PDE4B catalytic domain (PDE4Bcat) (Homo sapiens, UniProt Q07343); test: Phosphodiesterase inhibitory activity ([3H]cAMP breakdown, recombinant PDE4Bcat); assay type: biochemical; conditions: 30° C. 20 minutes, read-out: IC50(μmol/L) PDE4
T1 construct: The cDNA of PDE4B catalytic domain (hereinafter abbreviated as Cat) was isolated from human RNA by RT-PCR; made in house; host or cells: Sf9 insect cells (baculovirus, Gateway / Bac-to-Bac)
Source text: The cDNA of PDE4B catalytic domain (hereinafter abbreviated as Cat) was isolated from human RNA by RT-PCR. The isolated cDNA fragments were inserted into Sf9 insect cells using Gateway system (product of Invitrogen Corporation) and Bac-to-Bac (registered trademark) Baculovirus Expression system (product of Invitrogen Corporation) to express a target PDE protein. The recombinant PDE4Bcat was purified from the culture supernatants or cell extracts of Sf9 cells expressing high levels of the PDE protein by ion exchange chromatography and was used for the following experiments.
A 4 mmol/L solution of each test compound was serially diluted four-fold with a 15% DMSO solution to prepare solutions with concentrations of 15 nmol/L to 4 mmol/L (the final concentrations used in the experiments were 1.5 nmol/L to 400 μmol/L). 10 μL of the prepared test compound solutions, [3H] cAMP diluted with a buffer solution (40 mmol/L Tris-HCl (pH: 7.4), 10 mmol/L MgCl2), and 40 μL of the recombinant human PDE protein (2×10^−6 units, 1 unit is defined as the amount of PDE that breaks down 1 μmol/L of cAMP in one minute under the conditions of a pH of 7.5 and 30° C.) were added to a 96-well plate. The mixtures were reacted at 30° C. for 20 minutes. Then, the resultant mixtures were reacted at 65° C. for 2 minutes. Subsequently, 25 μL of 1 mg/mL5′-nucleotidase (Crotalus atrox venom, product of Sigma) was added to the mixtures, and the mixtures were reacted at 30° C. for 10 minutes. After completion of the reaction, 200 μL of a solution of Dowex (300 mg/mL Dowex 1×8-400 (product of Sigma Aldrich), 33% ethanol) was added to the mixtures, and the mixtures were shaken at 4° C. for 20 minutes. Subsequently, 200 μL of MicroScint 20 (product of Packard) was added to the mixtures, and measurement was performed using a scintillation counter (Topcount, product of Packard). IC50 values were calculated using Graph Pad Prism v3.03 (product of GraphPad Software). When […], the results were represented by “+.” When 0.1 μmol/L>the IC50 value, the results were represented by “++.”

[2] = tested on: histamine-induced bronchoconstriction; test: Histamine-induced airway contraction reaction in guinea pigs; assay type: in vivo; conditions: Cavia porcellus, iv, 0.5 min, i.v., 30 seconds after administration, read-out: Inhibition ratio; for inhibition in vivo at 0.1 mg/kg: 0.1 mg/kg administration (not in brackets)
Procedure: Guinea pigs were anesthetized with pentobarbital (30 mg/kg, i.p.). A cannula for intravenous administration, a cannula for collecting blood and measuring blood pressure, and a tracheal cannula were inserted into the left external jugular vein, right internal carotid artery, and trachea, respectively. The guinea pigs were maintained on artificial respiration under the conditions of 60 times/min and 10 mL/kg/stroke. The airflow from the side branch of the tracheal cannula was measured by a bronchospasm transducer (Ugo-Basile) and recorded on a computer via Power Lab (ADInstruments Japan). The guinea pigs were immobilized with gallamine (10 mg/kg, i.v.), and histamine was administered at 10-minute intervals (12.5 μg/kg, i.v.). […] We examined the inhibitory action of test compounds on histamine-induced bronchoconstriction 30 seconds after compounds administration. Bronchoconstriction was recorded as the amount of airflow, and the results were represented by the ratio of the maximum value of the histamine-induced airflow 30 seconds after the administration to the maximum value of the airflow before the administration. When the inhibition ratio≧90%, the results were represented by “+++.” When 90%>the inhibition ratio≧70%, the results were represented by “++.” When 70%>the inhibition ratio≧30%, the results were represented by “+.” The results shown in brackets are for 0.3 mg/kg administration, and the other results are for 0.1 mg/kg administration.

[3] = tested on: LPS-induced leukocytes in bronchoalveolar lavage fluid; test: LPS acute inflammation model in rats (total leukocytes in BALF); assay type: in vivo; conditions: 1 mg/kg orally one hour before LPS inhalation, total leukocytes in BALF 3 hours after LPS
Procedure: 1 mg/kg of the compounds were orally administered to rats one hour before inhalation of lipopolysaccharide (LPS) from E. coli serotype 055:B5, rats were inhaled nebulizing LPS solution (50 mL) by nebulizer for 30 minutes. Then, 3 hours after the LPS inhalation, the rats were euthanized with 20% urethane (5 ml/rat, i.p.). 5 ml of physiological saline for bronchoalveolar lavage was injected into the bronchial tubes and alveoli through the airway, and the bronchial tubes and alveoli were washed 3 times using a 5 mL syringe. This procedure was repeated twice, and the solution was collected as bronchoalveolar lavage fluid (BALF). The collected BALF was centrifuged at 1,200 rpm and […] for 10 minutes (Hirtachi; himac CR 5 DL). The sediment was re-suspended in 10 mL of a 0.1% bovine serum albumin-physiological saline, and an equivalent amount of Turk's solution was added to the suspension to stain leukocytes. The total number of leukocytes was counted under a microscope to determine the inhibition ratio. When the inhibition ratio≧60%, the results were represented by “++.” When 60%>the inhibition ratio≧50%, the results were represented by “+.”

T1 sequence (Q07343 330-659 limits assumed): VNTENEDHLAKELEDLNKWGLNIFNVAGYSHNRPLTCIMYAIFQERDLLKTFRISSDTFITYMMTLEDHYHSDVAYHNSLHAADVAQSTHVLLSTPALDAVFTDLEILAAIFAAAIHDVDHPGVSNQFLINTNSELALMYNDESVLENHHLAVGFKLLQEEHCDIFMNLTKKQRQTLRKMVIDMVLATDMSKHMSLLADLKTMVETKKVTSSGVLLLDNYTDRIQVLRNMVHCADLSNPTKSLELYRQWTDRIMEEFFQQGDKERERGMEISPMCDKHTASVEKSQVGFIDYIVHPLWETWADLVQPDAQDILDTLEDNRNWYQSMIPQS

SMILES | IC50 [1] [µmol/L] | inhibition in vivo at 0.1 mg/kg [2] [%] | Inhibition ratio [3] | inhibition in vivo at 0.3 mg/kg ([2]; 0.3 mg/kg administration (results in brackets)) [%]
CCc1cc2c(C(=O)Nc3c(Cl)cncc3Cl)ccc(OC)n2n1 [Example 9, 2-Ethyl-7-methoxypyrazolo[1,5-a]pyridine-4-carboxylic acid (3,5-dichloropyridin-4-yl)amide] | < 0.1 | 70 to 90 | + (When 60%>the inhibition ratio≧50%, the results were represented by “+.”) | –
COc1ccc(C(=O)Nc2c(Cl)cncc2Cl)c2cc(C(F)(F)F)nn12 [Example 16, 7-Methoxy-2-trifluoromethylpyrazolo[1,5-a]pyridine-4-carboxylic acid (3,5-dichloropyridin-4-yl)amide] | < 0.1 | ≥ 90 | ++ (When the inhibition ratio≧60%, the results were represented by “++.”) | –

Second part, led by results:

IC50 [1] [µmol/L] | SMILES | inhibition in vivo at 0.1 mg/kg [2] [%] | Inhibition ratio [3] | inhibition in vivo at 0.3 mg/kg ([2]; 0.3 mg/kg administration (results in brackets)) [%]
< 0.1 | CC(O)c1ccc(C(=O)Nc2c(Cl)cncc2Cl)c2cc(C(F)(F)F)nn12 (stereo not shown) [Example 107, 7-(1-Hydroxyethyl)-2-trifluoromethylpyrazolo[1,5-a]pyridine-4-carboxylic acid (3,5-dichloropyridin-4-yl)amide] | 70 to 90 | + (When 60%>the inhibition ratio≧50%, the results were represented by “+.”) | –
< 0.1 | COCc1cc2c(C(=O)Nc3c(Cl)c[n+](O)cc3Cl)ccc(OC)n2n1 [Example 77, 7-Methoxy-2-methoxymethylpyrazolo[1,5-a]pyridine-4-carboxylic acid (3,5-dichloro-1-oxypyridin-4-yl)amide] | – | – | 30 to 70
< 0.1 | COc1ccc(C(=O)Nc2c(Cl)cncc2Cl)c2cc(C=NO)nn12 [Example 82, 2-(Hydroxyiminomethy)-7-methoxypyrazolo[1,5-a]pyridine-4-carboxylic acid (3,5-dichloropyridin-4-yl)amide] | 70 to 90 | – | –

— patent publication US20100056791A1, “Pyrazolopyridine carboxamide derivative and phosphodiesterase (pde) inhibitor containing the same” (priority 2006, published 2010)
